Assay: Stability studies of dissolved products versus temperature
Format: physicochemical
Settings: in aqueous solution

Structure (SMILES) | Inflexion point of degradation of dissolved product with temperature
CCN1CCN(C(=O)N[C@@H](C(=O)N[C@@H]2C(=O)N3[C@@H]2SC(C)(C)[C@@H]3C(=O)O)c2ccccc2)C(=O)C1=O [Piperacillin] | around 15 °C
C[C@]1(Cn2ccnn2)[C@H](C(=O)O)N2C(=O)C[C@H]2S1(=O)=O [Tazobactam] | around 15 °C

From patent US20090186865A1, “Lyophilization Process” (SANDOZ AG, priority 2005, published 2009)
